Test system: MC38-SIY tumor cells
Experiment: IFNγ-ELISpot of splenocytes from mice implanted with PRR agonist-coated tumor cells
Assay type: in vivo
Experimental: Tumor cell lines were cultured at 37° C. and 5% CO2 in DMEM (Gibco) supplemented with 10% FBS (Atlanta Biologicals), 1% penicillin/streptomycin (Gibco), and 1×HEPES (Gibco). Tumor cells were harvested by trypsinization (Gibco) and washed 3 times with PBS (Gibco). Cells were resuspended in PBS, and 2×10^6 tumor cells were injected subcutaneously into the flanks of mice. For experiments with pattern recognition receptor (PRR) agonist coating, 2×10^6 tumor cells were resuspended with 50 μg naked Poly(I:C) HMW (InvivoGen), DMXAA (InvivoGen), or Pam2CSK4 (InvivoGen) in PBS and injected subcutaneously into the flanks of mice. All PRR agonists were added to cells without a transfection reagent. For experiments with fixed tumor cells, the cells were fixed with 4% paraformaldehyde (Electron Microscopy Sciences) for 10 minutes at RT, washed twice and resuspended with PBS, and 2×10^6 tumor cells were injected subcutaneously into the flanks of mice. Tumor area measurements (calculated as length×width) were collected 2-3 times a week until the endpoint of the study. Data not shown but available upon request—Details on experimental cohorts, the raw data, as well as the power calculations for all tumor outgrowth experiments.
ELISpot plates (EMD Millipore) were coated overnight at 4° C. with anti-IFNγ (BD Biosciences). Plates were washed and blocked with DMEM supplemented with 10% FBS, 1% penicillin/streptomycin, and 1×HEPES for 2 hours at room temperature (RT). Spleens were harvested from mice at day 5 or day 7 post-tumor inoculation and mashed through a 70 μm filter with a 1 mL syringe plunger to generate a single cell suspension. Red blood cells were lysed with 500 μL of ACK Lysing Buffer (Gibco) on ice for 2 minutes. Splenocytes were washed 3 times with chilled PBS and 1×10^6 cells were assayed per well in the presence or absence of 160 nM SIY peptide or 100 ng/mL PMA (Sigma-Aldrich) and 1 μg/mL ionomycin (Sigma-Aldrich) as a positive control. Plates were developed the next day using the BD mouse IFNγ-ELISpot kit, following manufacturer's protocol.

## polyinosinic-polycytidylic acid [Poly(I:C)]
Poly(I:C)-coated 4% PFA-fixed MC38-SIY tumor cells
  induction of antigen-specific T cell responses (IFNγ-ELISpot): failed to induce any antigen-specific T cell responses
Poly(I:C)-coated MC38-SIY tumor cells implanted in Batf3−/− mice, day 7 post-tumor inoculation, 50 μg per 2×10^6 cells
  antigen-specific T cell responses restored, as share of the priming responses observed in WT mice (IFNγ-ELISpot): 45.0%
Poly(I:C)-coated MHC class I-deficient (β2M−/−) MC38-SIY tumor cells, Batf3−/− mice
  restoration of T cell responses (IFNγ-ELISpot): no restoration
